The test deals with T1, PDE10A2 (Homo sapiens, UniProt Q9Y233).
T1 construct: residues serine 449 to aspartate 789; His6 (H6) with Gateway linker and thrombin cleavage site (N, cleaved yes); made in house; host or cells: E. coli BL21(DE3) pLysS
T1 sequence (Q9Y233 715-1055): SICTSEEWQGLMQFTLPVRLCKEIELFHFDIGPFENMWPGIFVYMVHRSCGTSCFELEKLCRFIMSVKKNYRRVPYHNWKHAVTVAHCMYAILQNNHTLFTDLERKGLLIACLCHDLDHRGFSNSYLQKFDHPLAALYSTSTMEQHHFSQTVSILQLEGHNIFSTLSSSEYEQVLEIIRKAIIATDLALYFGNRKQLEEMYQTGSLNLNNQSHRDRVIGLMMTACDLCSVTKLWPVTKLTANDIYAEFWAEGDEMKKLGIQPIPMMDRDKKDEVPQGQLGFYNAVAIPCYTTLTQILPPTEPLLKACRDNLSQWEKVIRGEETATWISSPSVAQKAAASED
Put plainly: PDE10A2 Scintillation Proximity Assay (SPA), [3H]-cGMP hydrolysis. The test is classed as biochemical. As to conditions: catalytic domain of human PDE10A2 (S449-D789), 0.25 nM enzyme, 50 nM cGMP + 50 nM [3H]-cGMP, 30 minutes at room temperature; read-out: PDE10A2 inhibition IC50. As to the method:
The following tests were carried out in order to determine the activity of the compounds of the present invention. PDE10 activity of the compounds of the present invention is determined using a Scintillation Proximity Assay (SPA)-based method similar to the one previously described (Fawcett, L. et al., ProcNatl Acad Sci USA (2000) 97(7):3702-3707).
PDE10A1 and PDE10A2 are two splice variants of PDE10A. There are these 2 splice variants known, which differ in the N-terminal part of the protein. The catalytic domains of PDE10A1 and PDE10A2 are identical. The assay for PDE10A2 described below is therefore also representative for PDE10A1 and also for PDE10A in general.
The PDE10A2 assay was performed in a two step procedure in 96-well micro titer plates. The reaction mixture of 80 μl contained 20 mM HEPES/10 mM MgCl2/[…] (pH 7.5), 50 nM cGMP (Sigma) and 50 nM [^3H]-cGMP (GE Healthcare), 0.25 nM PDE10A2 with or without a specific test compound. A range of concentrations of the potential inhibitor was used to generate data for calculating the concentration of inhibitor resulting in 50% of the effect (e.g. IC50, the concentration of the competitor inhibiting PDE10A2 activity 50%). Non-specific activity was tested without the enzyme. The reaction was initiated by addition of the substrate solution (cGMP and [^3H]-cGMP) and allowed to progress for 30 minutes at room temperature. The reaction was terminated by transferring 50 μl of the reaction mixture into an OptiPlate (Perkin Elmer) containing 25 μl of YSi-SPA scintillation beads (GE Healthcare) in 18 mM zinc sulphate solution (stop reagent). After 1 h under shaking, the plate was centrifuged one minute at 1000 rpm to allow beads to settle. Afterwards, radioactive counts were measured on a Perkin Elmer TopCount Scintillation plate reader.
The catalytic domain of human PDE10A2, residues serine 449 to aspartate 789, was amplified by PCR using cDNA (Origene) and the oligonucleotides 5′-GGGGACAAGTTTGT […]-3′ (with AttB1 recombination site in bold and thrombin protease cleavage site in italics) and 5′-[…]-3′ (with AttB2 recombination site in bold) which conferred Gateway recombination sites. The PCR product was used in a BP recombination reaction with pDONR221 to generate pENTR Thm-PDE10A2(S449-D789) which was DNA sequence verified and then used in an LR recombination reaction with a Gateway modified version of pET11a. The resulting expression vector, placT7.2H6-(gwl)-Thm-PDE10A2(S449-D789) was DNA sequence confirmed and transformed into E. coli strain BL21(DE3) pLysS and recombinant protein was produced in TB medium at 20° C. by induction to a final IPTG concentration of 0.5 mM at an optical density of 1.0 at 600 nm for 20 hours. About 30% of the protein was in the soluble fraction of the cell homogenate. The protein was purified using sequential chromatography on Ni-NTA and HiTrapQ/HiTrapS. After thrombin digest at room temperature a HiTrapChelating/HiTrap Benzamindin chromatography removed impurities, uncleaved protein and thrombin. Final purification of PDE10A2(S449-D789) was performed on a Superdex 75 size exclusion chromatography equilibrated with 25 mM HEPES pH 8.4, 0.15 M NaCl. The yield of pure protein was 2 mg/liter of culture volume is relatively low. The purity of the protein was >95%, monomeric and monodisperse as shown by SDS-PAGE, HPLC and analytical ultracentrifugation.
A general note: Scintillation proximity formats need no separation of bound from free tracer.
The IC50 is the point on the concentration scale where inhibition reaches its midpoint. Regarding `Cc1cncc(-n2ccc(=O)c(-c3ccnn3-c3cccc(F)c3)n2)c1` [Example 37, 3-[2-(3-Fluoro-phenyl)-2H-pyrazol-3-yl]-1-(5-methyl-pyridin-3-yl)-1H-pyridazin-4-one], the IC50 was determined as 149 nM.

Regarding `Cc1cc(-n2ccc(=O)c(-c3ccnn3-c3ccc4c(c3)OCCO4)n2)ccn1` [Example 38, 3-[2-(2,3-Dihydro-benzo[1,4]dioxin-6-yl)-2H-pyrazol-3-yl]-1-(2-methyl-pyridin-4-yl)-1H-pyridazin-4-one], the half-maximal inhibitory concentration (IC50) is 437 nM.

For `Cc1cc(-n2ccc(=O)c(-c3ccnn3-c3cccc(F)c3)n2)ccn1` [Example 39, 3-[2-(3-Fluoro-phenyl)-2H-pyrazol-3-yl]-1-(2-methyl-pyridin-4-yl)-1H-pyridazin-4-one], the IC50 amounted to 2560 nM.

Take `COc1cc(-n2ccc(=O)c(-c3ccnn3-c3cccc(F)c3)n2)ccn1` [Example 40, 3-[2-(3-Fluoro-phenyl)-2H-pyrazol-3-yl]-1-(2-methoxy-pyridin-4-yl)-1H-pyridazin-4-one]: the IC50 was 414 nM.

`O=c1ccn(-c2ccnc(N3CCOCC3)c2)nc1-c1ccnn1-c1ccc2c(c1)OCCO2` [Example 41, 3-[2-(2,3-Dihydro-benzo[1,4]dioxin-6-yl)-2H-pyrazol-3-yl]-1-(2-morpholin-4-yl-pyridin-4-yl)-1H-pyridazin-4-one]: the IC50 was determined as 82 nM.

Consider `O=c1ccn(-c2ccnc(N3CCOCC3)c2)nc1-c1ccnn1-c1cccc(F)c1` [Example 42, 3-[2-(3-Fluoro-phenyl)-2H-pyrazol-3-yl]-1-(2-morpholin-4-yl-pyridin-4-yl)-1H-pyridazin-4-one], for which the IC50 amounted to 1420 nM.

Take `N#Cc1cc(-n2ccc(=O)c(-c3ccnn3-c3ccc4c(c3)OCCO4)n2)ccn1` [Example 43, 4-{3-[2-(2,3-Dihydro-benzo[1,4]dioxin-6-yl)-2H-pyrazol-3-yl]-4-oxo-4H-pyridazin-1-yl}-pyridine-2-carbonitrile]: the 50% inhibitory concentration (IC50) was found to be 663 nM.

With `N#Cc1cc(-n2ccc(=O)c(-c3ccnn3-c3cccc(F)c3)n2)ccn1` [Example 44, 4-{3-[2-(3-Fluoro-phenyl)-2H-pyrazol-3-yl]-4-oxo-4H-pyridazin-1-yl}-pyridine-2-carbonitrile], the IC50 stood at 2290 nM.

Regarding `CS(=O)(=O)c1cncc(-n2ccc(=O)c(-c3ccnn3-c3cccc(F)c3)n2)c1` [Example 45, 3-[2-(3-Fluoro-phenyl)-2H-pyrazol-3-yl]-1-(5-methanesulfonyl-pyridin-3-yl)-1H-pyridazin-4-one], the IC50 came to 259 nM.

As for `O=c1ccn(-c2ccnc(O)c2)nc1-c1ccnn1-c1ccc2c(c1)OCCO2` [Example 46, 3-[2-(2,3-Dihydro-benzo[1,4]dioxin-6-yl)-2H-pyrazol-3-yl]-1-(2-hydroxy-pyridin-4-yl)-1H-pyridazin-4-one], the IC50 was determined as 57 nM.

With `O=c1ccn(-c2cccnc2)nc1-c1ccnn1-c1cc(F)ccc1F` [Example 47, 3-[2-(2,5-Difluoro-phenyl)-2H-pyrazol-3-yl]-1-pyridin-3-yl-1H-pyridazin-4-one], the IC50 worked out at 352 nM.

In the case of `Cc1cncc(-n2ccc(=O)c(-c3ccnn3-c3ccnc4ccc(F)cc34)n2)c1` [Example 48, 3-[2-(6-Fluoro-quinolin-4-yl)-2H-pyrazol-3-yl]-1-(5-methyl-pyridin-3-yl)-1H-pyridazin-4-one], the 50% inhibitory concentration (IC50) was found to be 25 nM.

Take `O=c1ccn(-c2cncc(F)c2)nc1-c1ccnn1-c1ccnc2ccc(F)cc12` [Example 49, 1-(5-Fluoro-pyridin-3-yl)-3-[2-(6-fluoro-quinolin-4-yl)-2H-pyrazol-3-yl]-1H-pyridazin-4-one]: the IC50 stood at 163 nM.

In the case of `O=c1ccn(-c2cccnc2)nc1-c1ccnn1-c1ccnc2ccc(F)cc12` [Example 50, 3-[2-(6-Fluoro-quinolin-4-yl)-2H-pyrazol-3-yl]-1-pyridin-3-yl-1H-pyridazin-4-one], the IC50 was 87 nM.

In the case of `O=c1ccn(-c2cncc(Cl)c2)nc1-c1ccnn1-c1ccnc2ccccc12` [Example 51, 1-(5-Chloro-pyridin-3-yl)-3-(2-quinolin-4-yl-2H-pyrazol-3-yl)-1H-pyridazin-4-one], the IC50 is 20 nM.

The record behind these values is US9187455B2, “Substituted pyridazines as PDE10A inhibitors” (Hoffmann-La Roche Inc., priority 2009, dated 2015).
